The record followed here is PubChem BioAssay (NCI).

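Cells were grown in 96-well plates and exposed to each compound for 48 hours at five concentrations; endpoints were interpolated linearly between bracketing concentrations, or set to the highest concentration if not reached. TGI: total growth inhibition.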 Some results are limits rather than exact numbers.

Among the test systems are MCF7 breast; SW-620 colon; RXF 393 renal; PC-3 prostate; NCI-H226 lung; CAKI-1 renal; RPMI-8226 leukemia; BT-549 breast; HS 578T breast; HOP-92 NSCLC.
Common to all, as to assay: NCI-60 cell line screen, 48 h

`[N-]=[N+]=NC(c1ccccc1)(c1ccccc1)c1ccccc1`: the TGI in the test with MCF7 breast stood at 35.7 µM; with SW-620 colon, 40.5 µM; in the test on RXF 393 renal, 32.9 µM; in the test with PC-3 prostate, 29.4 µM; in the test on NCI-H226 lung, 33.2 µM; in the test with CAKI-1 renal, 46.7 µM. For the same compound, the TGI came out at 62.6 µM in the test with RPMI-8226 leukemia, 37.7 µM in the test with BT-549 breast, 51.8 µM in the test on HS 578T breast and 32.3 µM in the test with HOP-92 NSCLC.
In the case of `COC(=O)c1c(C)nc2c1cc(O)c1[nH]c(C)c(C)nc12`, the TGI in the test on MCF7 breast, in the test on SW-620 colon, in the test on RXF 393 renal, in the test with PC-3 prostate, in the test on NCI-H226 lung and in the test on CAKI-1 renal was more than 100 µM throughout. Also, the TGI in the test with RPMI-8226 leukemia, with BT-549 breast, with HS 578T breast and in the test on HOP-92 NSCLC was more than 100 µM in each case.
On to `Cc1ccccc1OC(C)C(=O)NN1C(=O)CSC1c1ccccc1` (stereo not given), for which the TGI with MCF7 breast, in the test on SW-620 colon, in the test on RXF 393 renal, in the test on PC-3 prostate, with NCI-H226 lung and in the test on CAKI-1 renal was more than 100 µM each time. Further, the TGI in the test with RPMI-8226 leukemia, in the test on BT-549 breast, in the test on HS 578T breast and with HOP-92 NSCLC was more than 100 µM each time.
With `CC(=O)N(C(=O)CC(=O)N1N=C(c2ccccc2)C(N=Nc2ccccc2[N+](=O)[O-])C1=O)c1ccc(Cl)cc1` (stereo not given), the TGI in the test with MCF7 breast, with SW-620 colon, in the test on RXF 393 renal, in the test with PC-3 prostate, with NCI-H226 lung and with CAKI-1 renal was more than 10 µM in each case. The TGI in the test with RPMI-8226 leukemia, in the test with BT-549 breast, with HS 578T breast and in the test with HOP-92 NSCLC was more than 10 µM each time.
As for `COc1nncc2[nH]c(-c3ccccc3)cc12`, the TGI with MCF7 breast, in the test on SW-620 colon, in the test with RXF 393 renal, in the test with PC-3 prostate, in the test with NCI-H226 lung and in the test on CAKI-1 renal was more than 100 µM in each case. Further, the TGI in the test on RPMI-8226 leukemia, in the test on BT-549 breast, in the test on HS 578T breast and with HOP-92 NSCLC was more than 100 µM throughout.
With `Cc1cc(C)nc(NS(=O)(=O)c2ccc(NC(=O)c3ccc4nc5ccccc5c(Nc5ccc(S(N)(=O)=O)cc5)c4c3)cc2)n1`, the TGI with MCF7 breast, in the test with SW-620 colon, in the test with RXF 393 renal, in the test with PC-3 prostate, in the test with NCI-H226 lung and with CAKI-1 renal was more than 100 µM in each case. Also, the TGI with RPMI-8226 leukemia, with BT-549 breast, in the test with HS 578T breast and in the test on HOP-92 NSCLC was more than 100 µM in each case.
Consider `CCOC(=O)Nc1sc2c(c1C#N)CCCC2`, for which the TGI with MCF7 breast, with SW-620 colon, with RXF 393 renal, with PC-3 prostate, in the test on NCI-H226 lung and in the test with CAKI-1 renal was more than 100 µM each time. In addition, the TGI with RPMI-8226 leukemia, in the test with BT-549 breast, in the test on HS 578T breast and in the test on HOP-92 NSCLC was more than 100 µM in each case.
As to `CCOC(=O)N1CCN(Cc2cc(=O)n3ccc(C)cc3n2)CC1`, the TGI in the test on MCF7 breast, with SW-620 colon, in the test on RXF 393 renal, with PC-3 prostate, with NCI-H226 lung and in the test on CAKI-1 renal was more than 100 µM throughout. Further, the TGI in the test with RPMI-8226 leukemia, in the test on BT-549 breast, with HS 578T breast and with HOP-92 NSCLC was more than 100 µM each time.
As for `CC(=O)Nn1c(=S)[nH]c2ccccc21`, the TGI with MCF7 breast, with SW-620 colon, in the test on RXF 393 renal, with PC-3 prostate, in the test on NCI-H226 lung and in the test on CAKI-1 renal was more than 100 µM throughout. Moreover, the TGI with RPMI-8226 leukemia, in the test with BT-549 breast, with HS 578T breast and with HOP-92 NSCLC was more than 100 µM in each case.
Regarding `S=C(N/N=C(/c1ccccc1)c1ccccn1)N(Cc1ccccn1)Cc1ccccn1`, the TGI in the test with MCF7 breast worked out at 5.02 µM; with SW-620 colon it was 7.72 µM; with RXF 393 renal, 2.74 µM; in the test on PC-3 prostate it was 1.78 µM; with NCI-H226 lung, 0.433 µM; in the test on CAKI-1 renal it was 1.42 µM. The TGI in the test on RPMI-8226 leukemia was 3.38 µM; in the test with BT-549 breast, 1.51 µM; in the test on HS 578T breast it was more than 29.8 µM; in the test with HOP-92 NSCLC, 1.45 µM.
Consider `Nc1nccc(-c2c[nH]c3cc(Br)ccc23)n1`, for which the TGI in the test on MCF7 breast was more than 100 µM; with SW-620 colon, more than 100 µM; in the test on RXF 393 renal it was 49.3 µM; with PC-3 prostate, more than 100 µM; in the test on NCI-H226 lung, more than 100 µM; in the test with CAKI-1 renal, 35 µM. Moreover, the TGI was 49.5 µM in the test with RPMI-8226 leukemia, more than 100 µM with BT-549 breast, 75.7 µM in the test on HS 578T breast and 63.8 µM in the test with HOP-92 NSCLC.
With `Cc1ccnc(NS(=O)(=O)c2ccc(N=[N+]=[N-])cc2)n1`, the TGI in the test on MCF7 breast, in the test on SW-620 colon, with RXF 393 renal, with PC-3 prostate, in the test with NCI-H226 lung and with CAKI-1 renal was more than 100 µM each time. Besides, the TGI with RPMI-8226 leukemia, in the test on BT-549 breast, with HS 578T breast and in the test on HOP-92 NSCLC was more than 100 µM in each case.
Turning to `Cc1cc(-c2nc3ccc(F)cc3s2)ccc1NC(=O)[C@H](C)N`, the TGI is 13.1 µM in the test with MCF7 breast; 15 µM with SW-620 colon; 21.7 µM with RXF 393 renal; 24.3 µM in the test with PC-3 prostate; 19.3 µM with NCI-H226 lung; 22.1 µM in the test with CAKI-1 renal. Further, the TGI in the test with RPMI-8226 leukemia was 13.8 µM; in the test on BT-549 breast it was 26.8 µM; in the test with HS 578T breast it was 28.5 µM; with HOP-92 NSCLC, 24.7 µM.
`C[C@]12CCC3C4=C(CCC3C1CCC2=O)C(=O)[C@H]1O[C@H]1C4=O` (stereo not given in full): the TGI in the test with MCF7 breast is 4.14 µM; in the test on SW-620 colon it was 4.98 µM; in the test on RXF 393 renal it was 3.18 µM; with PC-3 prostate, 11.5 µM; in the test on NCI-H226 lung, 4.99 µM; in the test with CAKI-1 renal, 4.88 µM. In addition, the TGI is 4.25 µM in the test on RPMI-8226 leukemia, 4.83 µM in the test on BT-549 breast, more than 30.5 µM with HS 578T breast and 16.8 µM in the test with HOP-92 NSCLC.
For the compound `O=C(/C=C/c1ccccc1)C[C@@H](O)C[C@@H]1CC=CC(=O)O1`, the TGI was 11.4 µM in the test on MCF7 breast; 5.53 µM in the test on SW-620 colon; more than 23 µM in the test on RXF 393 renal; 31.8 µM in the test on PC-3 prostate; more than 100 µM in the test with NCI-H226 lung; 27.6 µM with CAKI-1 renal. Moreover, the TGI in the test with RPMI-8226 leukemia was more than 24.5 µM; with BT-549 breast, 27.7 µM; in the test with HS 578T breast it was more than 87.3 µM; in the test with HOP-92 NSCLC, 16 µM.
`CC(=O)c1c2c(c3ccccc3c1O)O[C@@H]1OCC[C@H]21`: the TGI in the test with MCF7 breast, in the test on SW-620 colon, in the test with RXF 393 renal, with PC-3 prostate, in the test on NCI-H226 lung and in the test on CAKI-1 renal was more than 100 µM throughout. Moreover, the TGI in the test with RPMI-8226 leukemia, in the test on BT-549 breast, in the test on HS 578T breast and in the test on HOP-92 NSCLC was more than 100 µM throughout.
With `O=[N+]([O-])c1cc(C=NC23CC4CC(CC(C4)C2)C3)ccc1Cl`, the TGI was 27.9 µM in the test on MCF7 breast; 27.7 µM in the test on SW-620 colon; 37.2 µM in the test with RXF 393 renal; 47.5 µM in the test with PC-3 prostate; more than 81.3 µM with NCI-H226 lung; 18.7 µM in the test with CAKI-1 renal. Also, the TGI in the test on RPMI-8226 leukemia is 16.8 µM; in the test with BT-549 breast, 45.3 µM; in the test on HS 578T breast, more than 94 µM; with HOP-92 NSCLC, 60.5 µM.
In the case of `Oc1ccccc1CNCc1nc2ccccc2[nH]1`, the TGI is more than 100 µM in the test on MCF7 breast; more than 100 µM in the test on SW-620 colon; more than 100 µM with RXF 393 renal; more than 100 µM with PC-3 prostate; 87.4 µM with NCI-H226 lung; more than 100 µM in the test on CAKI-1 renal. In addition, the TGI in the test with RPMI-8226 leukemia is 73.1 µM; in the test with BT-549 breast it was more than 100 µM; with HS 578T breast it was more than 100 µM; in the test with HOP-92 NSCLC it was more than 100 µM.
For `O=C(OCc1ccccc1)N1CCNCCN(C(=O)OCc2ccccc2)CCNCC1`, the TGI was 38.8 µM with MCF7 breast; more than 100 µM in the test with SW-620 colon; more than 100 µM with RXF 393 renal; more than 100 µM in the test on PC-3 prostate; more than 100 µM with NCI-H226 lung; 55.1 µM in the test on CAKI-1 renal. The TGI is 47.3 µM in the test with RPMI-8226 leukemia, more than 100 µM in the test with BT-549 breast, 54.5 µM in the test on HS 578T breast and more than 100 µM in the test on HOP-92 NSCLC.
As to `CC1(C)O[C@H]2OC(CO[Si](C)(C)C(C)(C)C)C(N=[N+]=[N-])[C@H]2O1` (stereo not given in full), the TGI was determined as 36.8 µM in the test with MCF7 breast; 52.4 µM in the test with SW-620 colon; 32.6 µM in the test on RXF 393 renal; 37 µM in the test on PC-3 prostate; 38.7 µM in the test with NCI-H226 lung; 42.5 µM in the test on CAKI-1 renal. In addition, the TGI with RPMI-8226 leukemia worked out at 28.8 µM; with BT-549 breast, 36.7 µM; in the test on HS 578T breast, 51.5 µM; in the test with HOP-92 NSCLC, 75.9 µM.
As to `N#CC(NCc1cccc(CNC(C#N)c2ccccc2)c1)c1ccccc1` (stereo not given), the TGI in the test with MCF7 breast was 56.6 µM; in the test on SW-620 colon, 61.4 µM; in the test on RXF 393 renal, more than 100 µM; in the test with PC-3 prostate, more than 100 µM; in the test on NCI-H226 lung it was more than 100 µM; in the test on CAKI-1 renal, more than 100 µM. The TGI is 65.4 µM in the test on RPMI-8226 leukemia, 87 µM in the test on BT-549 breast, more than 100 µM with HS 578T breast and 89.8 µM in the test on HOP-92 NSCLC.
Consider `COP(=O)(OC)C1=c2c(C)noc2=C2C=COC2C1=O` (stereo not given), for which the TGI with MCF7 breast, with SW-620 colon, in the test with RXF 393 renal, in the test on PC-3 prostate, with NCI-H226 lung and with CAKI-1 renal was more than 100 µM throughout. For the same compound, the TGI with RPMI-8226 leukemia, in the test with BT-549 breast, in the test with HS 578T breast and in the test with HOP-92 NSCLC was more than 100 µM each time.
Turning to `CC(C)c1cc2c(cc1S(=O)(=O)O)[C@@]1(C)CCC[C@@](C)(C(=O)O)C1CC2` (stereo not given in full), the TGI in the test with MCF7 breast, in the test with SW-620 colon, in the test with RXF 393 renal, with PC-3 prostate, with NCI-H226 lung and with CAKI-1 renal was more than 100 µM each time. The TGI in the test on RPMI-8226 leukemia, in the test with BT-549 breast, in the test on HS 578T breast and with HOP-92 NSCLC was more than 100 µM each time.
